Entries after “also recorded” stand apart in the source; their conditions may differ.
Key:
Format in all cases: cell-based, human
p80 [1] = assay: Western analysis of p80 expression in drug-treated SKOV3 cells; details: for expression of p80 (Western blotting): OVCA cells, calculated as p80 per mg protein or DNA; for expression of p80 (Western analysis): SKOV3, 24-hour treatment, compared to control DMSO-treated cells
Protocol: FIG. 9. […] Rat brain extract was used as a positive control (lane e). MW=Molecular weight markers (High Range SDS-PAGE standard). Actin was detected as loading control.
Western Blot Analysis: The cell monolayer was lysed with lysis buffer containing six protease inhibitors (Protease Cocktail; Roche), incubated on ice for 10 min, and scraped with a rubber policeman. Cell lysate was collected and centrifuged at 12,000× g for 30 min. Supernatants were saved for SDS-PAGE and Western blot analysis, and pellets were extracted by SDS-PAGE sample buffer (minus reducing reagent). The total amount of protein in each extract was determined by the bicinchoninic acid (BCA) method. SDS-PAGE was performed, loading the same amount of total protein in the same volume into each sample well, using commercially available precast 4-15% gradient SDS-polyacrylamide gels (Bio Rad). High range SDS-PAGE standard (Bio Rad) was run as a standard. After electrophoresis, proteins were transferred onto a PVDF membrane. After transfer, the membrane was incubated with primary antibody, then washed, and incubated with peroxidase-labeled second antibody. Signals were visualized on Hyperfilm-ECL by the ECL-reagents (Amersham).
SDS-PAGE and Western Blot Analysis: The cell monolayer was lysed with lysis buffer containing 6 protease inhibitors (Boehringer-Mannheim). Cell lysate was collected by centrifugation after the supernatants were saved. The pellet was extracted by boiling with SDS-containing buffer. The total amount of protein in each extract was determined. SDS-PAGE was performed by loading the same amount of total protein into each sample well. After electrophoresis, proteins were electro-transferred onto a PVDF membrane. Then, the membrane was incubated with primary antibody, washed, and incubated with peroxidase conjugated horse anti-mouse IgG (H+L). Signals were developed with an enhanced luminescence reagent (ECL, Amersham) and visualized on Hyper ECL-Film. (Amersham). Signal density was measured and analyzed by a densitometer. Western analysis can furnish information on immunoreactivity and molecular size; therefore, this technique was often used for the first-line screening of the presence of p80. However, if there was any ambiguity about the cross-reactivity, the results were double checked with Northern blotting or RT-PCR with specific primers.
(§1) Rationale and Experiments: In order to assess the effects of various classes of chemotherapy on p80-containing OVCA cells and to elucidate the relationship between p80, EM, and OVCA proliferation, EM or tamoxifen or the NADPH-oxidase inhibitor diphenyleneiodonium treatment was carried out. […] The treatment was followed with Western blotting to determine the effect of each agent on p80 expression. To control for reduced cell numbers or changes in cell volume as confounding factors, results were calculated on the basis of p80 per mg protein or DNA in the cells.

OVCA cell lines [2] = assay: MTT assay of OVCA cell proliferation; details: data not shown; for cell proliferation (MTT assay): all the cell lines, same doses as the p80 experiment
Protocol: as §1
To further test the relationship between p80 and OVCA proliferation, OVCA cells were treated with EGF and measured proliferation (MTT assay) and the expression of p80 (Western Blotting). Again, results were calculated on a per mg protein or DNA basis to avoid confounding. […] (2) E-M/ECC's and their roles as specific antimicrotubular agents will be tested.

p80 [3] = assay: Western blotting of p80 in PMA-treated THP-1 cells; details: 10 ng/ml, 5 days
Protocol: (§2) FIG. 11. (Top): Light microscopy of THP-1 cells after treatment of PMA. A. untreated THP-1 cells; B. THP-1 cells treated with 10 ng for five days. (Middle): Western blotting analysis of p80 in PMA-treated THP-1 cells. M: protein markers, Lane 1. SKOV3 (OVCA) as p80 positive control, Lane 2. Untreated THP-1 cells, supernatant from the cell lysate. Lane 3. Untreated THP-1 cell, pellet from the cell lysate. Lane 4. 5 day-PMA (10 ng/ml) treated THP-1 cells, supernatant from the cell lysate. Lane 5:5 day-PMA (10ng/ml) treated THP-1 cells, pellet from the cell lysate. Lane 6: human brain protein extract as 350 kDa MAP1a control. Lanes 7-12 are duplications of Lane 1-7. Note: Before PMA treatment there is a thick 80 kDa band in Lane 2; after 5 days of PMA treatment, the 80 kDa band became undetectable. (Bottom): IF straining of THP-1 cells after 5 days treatment with PMA. A. Untreated THP-1 cells; B. PMA (10 ng/ml) treated THP-1 cells.
(§3) Terminal Differentiation of THP-1 leukemia cells was associated with decreased expression of p80. […] The slide was studied by a fluorescence microscope for the presence of the P80 and photographed. […] Before treatment with PMA, the cells were round with bright fluorescence (FIG. 11-a Bottom); after PMA treatment, the cells grew processes with no IF of P80 (FIG. 11b Bottom). […]

p80 [4] = assay: Immunofluorescence staining of p80 in PMA-treated THP-1 cells; details: 10 ng/ml, 5 days
Protocol: as §2, §3

[5] = system: THP-1 promonocytic leukemia cell line; assay: Cell morphology/differentiation of THP-1 leukemia cells after PMA; details: THP-1 cells; 10 ng/ml
Protocol: as §2, §3

OVCA cell lines [6] = assay: 3H-thymidine uptake in cultured OVCA cells; details: all OVCA cell lines; 1-100 μg/ml
Excerpt: Culture of OVCA cell lines and cell cultures. Rationale: In order to determine the efficacy of inhibiting human OVCA cells with drugs, four extensively characterized OVCA cell lines, three in-house lines, DK2NMA, BIXLER, BIX3 (all courtesy of Drs. S. Chambers and B. Kacinski), (Peter B. Kaufman, William, Wu, Donghern Kim, Leland J. Cseke. Molecular Biology and Medicine. CRC Press inc., Boca Raton, Florida Chapter 12:289-304, 1995) and SKOV3, obtained from American Type Culture Collection, were established in mono-layer culture. Experiments: In preparation for drug treatment, cell suspensions were thor-oughly dispersed, precisely counted and then seeded into another flask at the desired cell den-sity. Conclusion: The cell lines were established, and test drugs shown to predictably affect the cells. Results were produced that meet stringent reliability criteria, including precision i.e., small variability between replicates.
Inhibition of OVCA cell proliferation by EM (estrogen mustard). Rationale: Clini-cally, EM has modest systemic toxicity and has been partially effective in the treatment of advanced prostatic carcinoma. […] Therefore, the effect of EM on OVCA cells was studied. Experiments: 3H-thymidine uptake was used to test the effect of EM against cultured OVCA cells in a wide range of concentrations (1-100 μg/ml). […]

OVCA cell lines [7] = assay: Flow cytometry of the cell cycle distribution of OVCA; details: all OVCA cell lines; 24 hours treatment; 1-100 μgm/ml; compared to control DMSO-treated cells
Excerpt: Effect of EM on the cell cycle of OVCA. Rationale: Since EM's antiproliferative activity could be due to the disruption of mitosis and other crucial microtubule-dependent cellular functions, flow cytometry was used to investigate the effect of EM on the cell cycle distribution of OVCA. Experiments: Following EM administration (1-100/ μgm/ml) the flasks were trypsinized and all cells subjected to flow cytometry in the Yale Cancer Center Core laboratory. […] Conclusions: (1) EM induced cell cycle synchronization at G2/M. This was consistent with an action on OVCA microtubule associated proteins (MAP's). (2) Synchronization in G2/M raised the possibility of radio-sensitization (Barnes WM. PCR amplification of up to 35-Kb DNA with high fidelity and high yield from lambda bacteriophage templates. Proc Natl Acad Sci USA March 15; 91 (6): 2216-20, 1994; Mandelkow E, Mandelkow E-M. Microtubules and microtubule-associated proteins. Current Opinion in Cell Biology 7:72-81, 1995.

p80 [8] = assay: SDS-PAGE/Western blot of p80 in BIX3 OVCA cells after EGF treatment; details: per mg protein or DNA basis, compared to untreated control
Protocol: FIG. 10. SDS-PAGE/Western blot analysis of p80 in BIX3 OVCA cells following treatment with EGF, (see text). The lanes are as follows: (a) protein standards, (b) control-untreated, (c) EGF-treated. The density of p80 expression was increased after EGF treatment. Actin was detected as loading control.
Stimulation of expression of p80 by epidermal growth factor (EGF). […] To further test the relationship between p80 and OVCA proliferation, OVCA cells were treated with EGF and measured proliferation (MTT assay) and the expression of p80 (Western Blotting). Again, results were calculated on a per mg protein or DNA basis to avoid confounding. Findings: (1) Increasing doses of EGF (10-50 ng/ml) stimulated OVCA proliferation in comparison to untreated controls (data not shown). […] (2) E-M/ECC's and their roles as specific antimicrotubular agents will be tested. Alternative approaches, such as targeting this molecule by using antisense DNA/RNA to block its expression could be helpful in elucidating whether the expression of this protein is a cause or an effect of OVCA proliferation. Furthermore, the antisense approach may also lead to the development of a novel modality for OVCA therapy targeting p80.

Molecule | expression of p80 (Western blotting) (p80 [1]) | cell proliferation (MTT assay) (OVCA cell lines [2]) | expression of p80 (Western analysis) (p80 [1]; 10 μM) | further results
CC/C(=C(\c1ccccc1)c1ccc(OCCN(C)C)cc1)c1ccccc1 [TMX, tamoxifen] | significantly inhibited | significantly decreased | – | expression of p80 (Western analysis) (p80 [1]; 100 μM): significant decreases
c1ccc2c(c1)[I+]c1ccccc1-2 [DPI, diphenyleneiodonium] | significantly inhibited | significantly decreased | significant decreases | –
CCCCCCCCCCCCCC(=O)O[C@@H]1[C@@H](C)[C@@]2(O)[C@@H](C=C(CO)C[C@]3(O)C(=O)C(C)=C[C@@H]23)[C@@H]2C(C)(C)[C@]12OC(C)=O [PMA, phorbol myristic acetate] | – | – | – | p80 (80 kDa band) on Western blots (p80 [3]): disappeared; also recorded: undetectable; immunofluorescence (IF) of p80 (p80 [4]): no IF of P80; differentiation / cell morphology [5]: began to differentiate to monocytes/macrophages
C[C@]12CC[C@@H]3c4ccc(OC(=O)N(CCCl)CCCl)cc4CC[C@H]3[C@@H]1CC[C@@H]2O [EM, estrogen mustard] | significantly inhibited | significantly decreased | significant decreases | 3H-thymidine incorporation (OVCA cell lines [6]): marked, dose-dependent inhibition; percentages of cells in G2/M phase (OVCA cell lines [7]): significant increase
epidermal growth factor (NSDSECPLSHDGYCLHDGVCMYIEALDKYACNCVVGYIGERCQYRDLKWWELR; Epidermal growth factor; UniProt P01133 971-1023, looked up) [EGF, growth factor; ovarian cancer cells have EGF receptors] | – | – | – | OVCA proliferation (MTT assay) (OVCA cell lines [2]; 10-50 ng/ml, increasing doses, compared to untreated controls): stimulated; expression of p80 (Western blotting) (p80 [8]): increased significantly

From patent US20240361324A1, “POINT OF SERVICE METHOD OF DETECTING, DIAGNOSING AND FOLLOWING CANCER AND OTHER PROLIFERATIVE CONDITIONS” (priority 2021, published 2024)
